Measured values as given in patent publication US20250277793A1, “COMPOSITIONS AND METHODS FOR CANCER DIAGNOSIS” (AOA Dx, priority 2020, published 2025).
Values joined by “and” are separate entries in the source; they are usually repeats but may differ in a detail not shown here. Equal values may be shown once.

Assays:
[1] = system: serum from mice vaccinated with PAMAM-GD2; assay: Direct binding ELISA, GD2 versions with vaccinated mouse sera; settings: antigen 10 ng/well, serum 1:75 dilution; for OD(450 nm): individual replicate wells; for OD(450 nm) Average: mean of 3
Procedure: (§1) Native gangliosides (GD2 or GD3, Control), Tria-tri-GD2, Tria-tri-GD3, PAMAM-GD2, PAMAM-GD3, or the monomeric precursors AP-GD2 or AP-GD3 were immobilized onto polystyrene Corning Strip Well 96-well plates (10 ng/well). After bocking all wells with albumin (BSA), the wells were reacted for binding by anti-GD2 or […] (7 nM final) or with serum from mice vaccinated with PAMAM-GD2 (1:75 dilution). Secondary antibody used was horseradish peroxidase (HRP)-conjugated anti-mouse IgG (Sigma). BG=background control.

anti-GD2 mAbs = assay: Direct binding ELISA, GD2 versions with anti-GD2 antibody; design: species or system mouse; settings: antigen immobilized 10 ng/well, mAb 7 nM final; for OD(450 nm): individual replicate wells; for OD(450 nm) Average: mean of 3
Procedure: as §1

[2] = Water solubility of intermediate carbohydrates; format: physicochemical; settings: read-out: water soluble
Procedure: p-Aminophenylether-b-D-lactopyranoside (AP-Lac, from Toronto Research Chemicals) was used to enzymatically synthesize water soluble (>20 mg/ml) AP-GD2 and AP-GD3 intermediate carbohydrates. The synthesis of AP-GD2 included […] of AP-GD3 (4 mM), […] of UDP-GalNAc (5.4 mM), and 10.5 units of CgtA (construct CJL-30), 10 mM MnCl2 and 24 mM Hepes pH 7.0 in a final volume of 55 ml. The reaction mixture was incubated at 37° C. for 6.5 hr. Insoluble material was removed by centrifugation at 27,000 g for 15 min and the enzyme was removed by ultrafiltration using a 10 kDa membrane cut off. The filtrate was loaded on SepPak C18 5 g column (waters Corp) and the product was eluted with water while unidentified contaminants remained in the column. The product was further purified by anion exchange chromatography on HiTrapQ (GE Healthcare) using a gradient of 0-0.3 M NH4HCO3 and by size exclusion chromatography on a Superdex Peptide 10/300 GL column (GE Healthcare). The measured molecular weights of AP-GD2 (1,218 g/mol) and AP-GD3 (927 g/mol) correspond to expected values. Structures were verified by 1D and 2D NMR spectroscopy and mass spectrometry (EI-MS). […]

[3] = system: antisera raised against PAMAM-GD3; assay: Direct binding ELISA, GD3 versions with vaccinated mouse sera; design: species or system mice; settings: antigen 10 ng/well, serum 1:75 dilution; for OD(450 nm): individual replicate wells; for OD(450 nm) Average: mean of 3
anti-GD3 mAbs = assay: Direct binding ELISA, GD3 versions with anti-GD3 antibody; design: species or system mouse; settings: antigen immobilized 10 ng/well, mAb 7 nM final; for OD(450 nm): individual replicate wells; for OD(450 nm) Average: mean of 3
Procedure: as §1

SMILES	OD(450 nm) [1]	OD(450 nm) Average [1]	OD(450 nm) (anti-GD2 mAbs)	OD(450 nm) Average (anti-GD2 mAbs)	solubility [2] [mg/mL]	OD(450 nm) [3]	OD(450 nm) Average [3]	OD(450 nm) (anti-GD3 mAbs)	OD(450 nm) Average (anti-GD3 mAbs)	OD(450 nm) (anti-GD2 mAbs; listed as Control)
CC(=O)NC1C(OC2C(CO)OC(OC3C(CO)OC(Oc4ccc(N)cc4)C(O)C3O)C(O)C2OC2(C(=O)O)CC(O)C(NC(C)=O)C([C@H](O)C(CO)OC3(C(=O)O)CC(O)C(NC(C)=O)C([C@H](O)[C@H](O)CO)O3)O2)OC(CO)C(O)C1O (stereo partly drawn) [AP-GD2, p-amino phenyl ether-GD2]	0.694 and 0.587 and 0.635	0.6387	0.483 and 0.558 and 0.568	0.5363	> 20					
CC(=O)NC1C(O)CC(OC2C(O)C(CO)OC(OC3C(CO)OC(Oc4ccc(N)cc4)C(O)C3O)C2O)(C(=O)O)OC1[C@H](O)C(CO)OC1(C(=O)O)CC(O)C(NC(C)=O)C([C@H](O)[C@H](O)CO)O1 (stereo partly drawn) [AP-GD3, p-amino phenyl ether-GD3]					> 20	0.483 and 0.558 and 0.568	0.5363	0.483 and 0.558 and 0.568	0.5363	
CC/C=C/C(O)C(CO[C@@H]1OC(CO)[C@@H](O[C@@H]2OC(CO)[C@H](O[C@@H]3OC(CO)[C@H](O)C(O)C3NC(C)=O)C(O[C@]3(C(=O)O)CC(O)[C@@H](NC(C)=O)C([C@H](O)[C@@H](CO)O[C@]4(C(=O)O)CC(O)[C@@H](NC(C)=O)C([C@H](O)[C@H](O)CO)O4)O3)C2O)C(O)C1O)NC(=O)CC (stereo partly drawn) [GD2, reference compound]	1.319 and 1.23 and 1.128	1.226		1.105						1.174 and 1.069 and 1.072
CC/C=C/C(O)C(CO[C@@H]1OC(CO)[C@@H](O[C@@H]2OC(CO)[C@H](O)C(O[C@]3(C(=O)O)CC(O)[C@@H](NC(C)=O)C([C@H](O)[C@@H](CO)O[C@]4(C(=O)O)CC(O)[C@@H](NC(C)=O)C([C@H](O)[C@H](O)CO)O4)O3)C2O)C(O)C1O)NC(=O)CC (stereo partly drawn) [GD3, reference compound]						0.646 and 0.534 and 0.555	0.5783	0.602 and 0.465 and 0.493	0.52	
